Laboratory results reported in PubChem BioAssay AID256 (DTP/NCI, 2004).
Where “and” joins values, the source holds several entries; their conditions need not be identical. Identical values can stand only once. Toxic doses and inconclusive results are not listed.

Test system: CD2F1 mice, L1210 leukemia ip, survival T/C
Assay: NCI In Vivo Anticancer Drug Screen. Data for tumor model L1210 Leukemia (intraperitoneal) in CD2F1 (CDF1) mice
Details: higher = longer survival
How it was run: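 Activity against a transplanted murine tumor was judged by comparing the compound group with a vehicle group. The outcome in the treated animals was divided by that in the controls.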

[1] = endpoint: mean survival time, dose: 100.0 mg/kg/injection, schedule: Q04DX003 (ip), vehicle: saline with Tween-80
[2] = endpoint: mean survival time, dose: 200.0 mg/kg/injection, schedule: Q04DX003 (ip), vehicle: saline with Tween-80
[3] = endpoint: mean survival time, dose: 400.0 mg/kg/injection, schedule: Q04DX003 (ip), vehicle: saline with Tween-80
[4] = endpoint: mean survival time, dose: 100.0 mg/kg/injection, schedule: Q01DX009 (ip), vehicle: saline
[5] = endpoint: mean survival time, dose: 200.0 mg/kg/injection, schedule: Q01DX009 (ip), vehicle: saline

O=C1NC2(CCCCC2)C(=O)N1CCN(CCCl)CCCl
T/C (endpoint: median survival time, dose: 0.5 mg/kg/injection, schedule: Q03HX024 (ip), vehicle: Klucel (hydroxypropylcellulose) (HPC)): 98 % of control
T/C (endpoint: median survival time, dose: 1.0 mg/kg/injection, schedule: Q01DX009 (ip), vehicle: Klucel (hydroxypropylcellulose) (HPC)): 101 % of control
T/C (endpoint: median survival time, dose: 1.0 mg/kg/injection, schedule: Q01DX009 (sc), vehicle: Klucel (hydroxypropylcellulose) (HPC)): 98 % of control
T/C (endpoint: median survival time, dose: 1.0 mg/kg/injection, schedule: Q03HX016 (ip), vehicle: Klucel (hydroxypropylcellulose) (HPC)): 96 % of control
T/C (endpoint: median survival time, dose: 1.0 mg/kg/injection, schedule: Q03HX024 (ip), vehicle: Klucel (hydroxypropylcellulose) (HPC)): 98 % of control
T/C (endpoint: median survival time, dose: 2.0 mg/kg/injection, schedule: Q01DX009 (ip), vehicle: Klucel (hydroxypropylcellulose) (HPC)): 101 % of control
T/C (endpoint: median survival time, dose: 2.0 mg/kg/injection, schedule: Q01DX009 (sc), vehicle: Klucel (hydroxypropylcellulose) (HPC)): 101 % of control
T/C (endpoint: median survival time, dose: 2.0 mg/kg/injection, schedule: Q03HX008 (ip), vehicle: Klucel (hydroxypropylcellulose) (HPC)): 110 % of control
T/C (endpoint: median survival time, dose: 2.0 mg/kg/injection, schedule: Q03HX016 (ip), vehicle: Klucel (hydroxypropylcellulose) (HPC)): 104 % of control
T/C (endpoint: median survival time, dose: 2.0 mg/kg/injection, schedule: Q03HX024 (ip), vehicle: Klucel (hydroxypropylcellulose) (HPC)): 106 % of control
T/C (endpoint: median survival time, dose: 4.0 mg/kg/injection, schedule: Q01DX009 (ip), vehicle: Klucel (hydroxypropylcellulose) (HPC)): 107 % of control
T/C (endpoint: median survival time, dose: 4.0 mg/kg/injection, schedule: Q01DX009 (oral), vehicle: Klucel (hydroxypropylcellulose) (HPC)): 123 % of control
T/C (endpoint: median survival time, dose: 4.0 mg/kg/injection, schedule: Q01DX009 (sc), vehicle: Klucel (hydroxypropylcellulose) (HPC)): 103 % of control
T/C (endpoint: median survival time, dose: 4.0 mg/kg/injection, schedule: Q03HX008 (ip), vehicle: Klucel (hydroxypropylcellulose) (HPC)): 106 % of control
T/C (endpoint: median survival time, dose: 4.0 mg/kg/injection, schedule: Q03HX016 (ip), vehicle: Klucel (hydroxypropylcellulose) (HPC)): 103 % of control
T/C (endpoint: median survival time, dose: 4.0 mg/kg/injection, schedule: Q03HX024 (ip), vehicle: Klucel (hydroxypropylcellulose) (HPC)): 109 % of control
T/C (endpoint: median survival time, dose: 4.0 mg/kg/injection, schedule: Q04DX003 (ip), vehicle: Klucel (hydroxypropylcellulose) (HPC)): 100 % of control
T/C (endpoint: median survival time, dose: 6.0 mg/kg/injection, schedule: Q01DX009 (ip), vehicle: Klucel (hydroxypropylcellulose) (HPC)): 153 % of control
T/C (endpoint: median survival time, dose: 8.0 mg/kg/injection, schedule: Q01DX009 (ip), vehicle: Klucel (hydroxypropylcellulose) (HPC)): 106 % of control
T/C (endpoint: median survival time, dose: 8.0 mg/kg/injection, schedule: Q01DX009 (oral), vehicle: Klucel (hydroxypropylcellulose) (HPC)): 115 % of control
T/C (endpoint: median survival time, dose: 8.0 mg/kg/injection, schedule: Q01DX009 (sc), vehicle: Klucel (hydroxypropylcellulose) (HPC)): 114 % of control
T/C (endpoint: median survival time, dose: 8.0 mg/kg/injection, schedule: Q03HX008 (ip), vehicle: Klucel (hydroxypropylcellulose) (HPC)): 115 % of control
T/C (endpoint: median survival time, dose: 8.0 mg/kg/injection, schedule: Q03HX016 (ip), vehicle: Klucel (hydroxypropylcellulose) (HPC)): 111 % of control
T/C (endpoint: median survival time, dose: 8.0 mg/kg/injection, schedule: Q03HX024 (ip), vehicle: Klucel (hydroxypropylcellulose) (HPC)): 122 % of control
T/C (endpoint: median survival time, dose: 8.0 mg/kg/injection, schedule: Q04DX003 (ip), vehicle: Klucel (hydroxypropylcellulose) (HPC)): 103 % of control
T/C (endpoint: median survival time, dose: 8.0 mg/kg/injection, schedule: Q08DX002 (ip), vehicle: Klucel (hydroxypropylcellulose) (HPC)): 106 % of control
T/C (endpoint: median survival time, dose: 9.0 mg/kg/injection, schedule: Q01DX009 (ip), vehicle: Klucel (hydroxypropylcellulose) (HPC)): 157 % of control and 164 % of control
T/C (endpoint: median survival time, dose: 13.0 mg/kg/injection, schedule: Q01DX009 (ip), vehicle: Klucel (hydroxypropylcellulose) (HPC)): 164 % of control and 176 % of control
T/C (endpoint: median survival time, dose: 16.0 mg/kg/injection, schedule: Q01DX001 (ip), vehicle: Klucel (hydroxypropylcellulose) (HPC)): 116 % of control
T/C (endpoint: median survival time, dose: 16.0 mg/kg/injection, schedule: Q01DX001 (sc), vehicle: Klucel (hydroxypropylcellulose) (HPC)): 92 % of control
T/C (endpoint: median survival time, dose: 16.0 mg/kg/injection, schedule: Q01DX009 (ip), vehicle: Klucel (hydroxypropylcellulose) (HPC)): 112 % of control
T/C (endpoint: median survival time, dose: 16.0 mg/kg/injection, schedule: Q01DX009 (oral), vehicle: Klucel (hydroxypropylcellulose) (HPC)): 112 % of control
T/C (endpoint: median survival time, dose: 16.0 mg/kg/injection, schedule: Q01DX009 (sc), vehicle: Klucel (hydroxypropylcellulose) (HPC)): 107 % of control
T/C (endpoint: median survival time, dose: 16.0 mg/kg/injection, schedule: Q03HX008 (ip), vehicle: Klucel (hydroxypropylcellulose) (HPC)): 122 % of control
T/C (endpoint: median survival time, dose: 16.0 mg/kg/injection, schedule: Q04DX003 (ip), vehicle: Klucel (hydroxypropylcellulose) (HPC)): 113 % of control
T/C (endpoint: median survival time, dose: 16.0 mg/kg/injection, schedule: Q08DX002 (ip), vehicle: Klucel (hydroxypropylcellulose) (HPC)): 109 % of control
T/C (endpoint: median survival time, dose: 32.0 mg/kg/injection, schedule: Q01DX001 (ip), vehicle: Klucel (hydroxypropylcellulose) (HPC)): 122 % of control
T/C (endpoint: median survival time, dose: 32.0 mg/kg/injection, schedule: Q01DX001 (oral), vehicle: Klucel (hydroxypropylcellulose) (HPC)): 100 % of control
T/C (endpoint: median survival time, dose: 32.0 mg/kg/injection, schedule: Q01DX001 (sc), vehicle: Klucel (hydroxypropylcellulose) (HPC)): 101 % of control
T/C (endpoint: median survival time, dose: 32.0 mg/kg/injection, schedule: Q01DX009 (oral), vehicle: Klucel (hydroxypropylcellulose) (HPC)): 123 % of control
T/C (endpoint: median survival time, dose: 32.0 mg/kg/injection, schedule: Q01DX009 (sc), vehicle: Klucel (hydroxypropylcellulose) (HPC)): 106 % of control
T/C (endpoint: median survival time, dose: 32.0 mg/kg/injection, schedule: Q04DX003 (ip), vehicle: Klucel (hydroxypropylcellulose) (HPC)): 114 % of control
T/C (endpoint: median survival time, dose: 32.0 mg/kg/injection, schedule: Q08DX002 (ip), vehicle: Klucel (hydroxypropylcellulose) (HPC)): 114 % of control
T/C (endpoint: median survival time, dose: 64.0 mg/kg/injection, schedule: Q01DX001 (ip), vehicle: Klucel (hydroxypropylcellulose) (HPC)): 117 % of control
T/C (endpoint: median survival time, dose: 64.0 mg/kg/injection, schedule: Q01DX001 (oral), vehicle: Klucel (hydroxypropylcellulose) (HPC)): 101 % of control
T/C (endpoint: median survival time, dose: 64.0 mg/kg/injection, schedule: Q01DX001 (sc), vehicle: Klucel (hydroxypropylcellulose) (HPC)): 102 % of control
T/C (endpoint: median survival time, dose: 64.0 mg/kg/injection, schedule: Q01DX009 (oral), vehicle: Klucel (hydroxypropylcellulose) (HPC)): 124 % of control
T/C (endpoint: median survival time, dose: 64.0 mg/kg/injection, schedule: Q08DX002 (ip), vehicle: Klucel (hydroxypropylcellulose) (HPC)): 119 % of control
T/C (endpoint: median survival time, dose: 128.0 mg/kg/injection, schedule: Q01DX001 (oral), vehicle: Klucel (hydroxypropylcellulose) (HPC)): 104 % of control
T/C (endpoint: median survival time, dose: 128.0 mg/kg/injection, schedule: Q01DX001 (sc), vehicle: Klucel (hydroxypropylcellulose) (HPC)): 105 % of control
T/C (endpoint: median survival time, dose: 128.0 mg/kg/injection, schedule: Q08DX002 (ip), vehicle: Klucel (hydroxypropylcellulose) (HPC)): 110 % of control
T/C (endpoint: median survival time, dose: 256.0 mg/kg/injection, schedule: Q01DX001 (ip), vehicle: Klucel (hydroxypropylcellulose) (HPC)): 116 % of control
T/C (endpoint: median survival time, dose: 256.0 mg/kg/injection, schedule: Q01DX001 (oral), vehicle: Klucel (hydroxypropylcellulose) (HPC)): 107 % of control
T/C (endpoint: median survival time, dose: 256.0 mg/kg/injection, schedule: Q01DX001 (sc), vehicle: Klucel (hydroxypropylcellulose) (HPC)): 104 % of control
T/C (endpoint: median survival time, dose: 512.0 mg/kg/injection, schedule: Q01DX001 (oral), vehicle: Klucel (hydroxypropylcellulose) (HPC)): 107 % of control

ClC1C(c2ccccc2)=C(c2ccccc2)c2ccccc21 (stereo not given)
T/C (endpoint: mean survival time, dose: 100.0 mg/kg/injection, schedule: Q01DX001 (ip), vehicle: saline with Tween-80): 87 % of control
T/C (endpoint: mean survival time, dose: 200.0 mg/kg/injection, schedule: Q01DX001 (ip), vehicle: saline with Tween-80): 91 % of control
T/C (endpoint: mean survival time, dose: 200.0 mg/kg/injection, schedule: Q01DX009 (ip), vehicle: saline with Tween-80): 101 % of control
T/C (endpoint: mean survival time, dose: 400.0 mg/kg/injection, schedule: Q01DX009 (ip), vehicle: saline with Tween-80): 98 % of control

CC(C)(C)S(=O)(=O)C(C)(C)C
T/C [1]: 98 % of control
T/C [2]: 93 % of control
T/C [3]: 93 % of control

C=C1C(=O)O[C@@H]2C[C@@]3(C)CCC[C@H](C)C3=C[C@H]12
T/C [4]: 98 % of control
T/C [5]: 101 % of control

Cn1cc(C(O)CN2CCCCC2)c2ccccc21 (stereo not given)
T/C [1]: 93 % of control

Cc1ccc(N=Nc2c(N)nc(N)nc2N)cc1C
T/C [1]: 96 % of control
T/C [2]: 102 % of control
T/C [3]: 108 % of control

Nc1nc(-c2ccccc2)c(CCCNc2ccc(C(=O)NC(CCC(=O)O)C(=O)O)cc2)c(=O)[nH]1 (stereo not given)
T/C [4]: 94 % of control
T/C [5]: 96 % of control
